Data on 1 compound can be found in patent publication US11298369B2, “Composition and uses thereof” (Progen PG500 Series Pty Ltd, priority 2016, dated 2022).

The subject of one data set is dendritic cell (DC). As to conditions: cited from earlier work.
The subject of data set [1] is tumour-associated macrophages (TAMs) and myeloid-derived suppressor cells (MDSCs). Conditions: preclinical pancreatic cancer models, chemically-induced skin cancer model; cited from earlier work.
The subject of another data set is 4T1.2 tumours. As to the kind of experiment: 4T1.2 tumour model: tumour growth inhibition. Conditions: day 18, PG545 15 mg/kg weekly, antibody 200 μg intraperitoneally days 1, 4, 8, 11, 15. In kind it is in vivo, Balb/c mice. As for the experimental part: Female Balb/c mice (Age 8 weeks; Walter and Eliza Hall Institute of Medical Research (WEHI), Victoria Australia) were inoculated in the intramammary fatpad with 1×10^5 4T1.2 cells in phosphate buffered saline. 4T1.2 is a mouse mammary tumour model.
The experiment was ended on day 18 or earlier if an ethical endpoint was met. Blood was collected via cardiac bleed and serum was prepared and frozen at −80° C.
The percentage tumour growth inhibition was determined according to the following formula: 100×(1−ΔT/ΔC) where ΔC and ΔT were calculated by subtracting the mean tumour volume in each group on day 1 of treatment from the mean tumour volume on the day of analysis. Statistical analysis of the in vivo data was performed using Graph Pad Prism Version 6.0 (Graph Pad La Jolla, Calif.). An ANOVA analysis was performed followed by Dunnett's post hoc test to compare the tumour growth in the treated groups to the vehicle control.

For the next data set, the system named is advanced solid tumours. As to conditions: cited from earlier work.
The conditions of data set [2]: mouse, in vivo, 20 mg/kg. As for the experimental part:
Mice were weighed and tumours measured 2-3 times weekly using electronic callipers. Tumour volume (mm^3) was calculated as length (mm)/2×width (mm)^2. One week following implantation mice with similar sized tumours (mean tumour volume 56 mm^3) were randomised into 4 groups of 6 animals (Day 1). Treatment groups were saline+control antibody, PG545+control antibody, saline+anti-PD-1 and PG545+anti-PD-1.
[…] Mice received a small dish containing a food supplement (Ensure mixed with food dust) daily.
In FIG. 1, the data represent the mean percent weight change from day 1 for each group; bars are standard error of the mean (SEM). […] It was decided to harvest the experiment on day 18.

As to `CC(C)CCC[C@@H](C)[C@H]1CC[C@H]2[C@@H]3CC[C@H]4C[C@@H](O[C@@H]5O[C@H](COS(=O)(=O)[O-])[C@@H](O[C@H]6O[C@H](COS(=O)(=O)[O-])[C@@H](O[C@H]7O[C@H](COS(=O)(=O)[O-])[C@@H](O[C@H]8O[C@H](COS(=O)(=O)[O-])[C@@H](OS(=O)(=O)[O-])[C@H](OS(=O)(=O)[O-])[C@H]8OS(=O)(=O)[O-])[C@H](OS(=O)(=O)[O-])[C@H]7OS(=O)(=O)[O-])[C@H](OS(=O)(=O)[O-])[C@H]6OS(=O)(=O)[O-])[C@H](OS(=O)(=O)[O-])[C@H]5OS(=O)(=O)[O-])CC[C@]4(C)[C@H]3CC[C@]12C.[Na+].[Na+].[Na+].[Na+].[Na+].[Na+].[Na+].[Na+].[Na+].[Na+].[Na+].[Na+].[Na+]` [PG545, 3β,5α-Cholestanyl 2,3,4,6-tetra-O-sodium sulfonato-α-D-glucopyranosyl-(1→4)-2,3,6-tri-O-sodium sulfonato-α-D-glucopyranosyl-(1→4)-2,3,6-tri-O-sodium sulfonato-α-D-glucopyranosyl-(1→4)-2,3,6-tri-O-sodium sulfonato-β-D-glucopyranoside], in the data set on dendritic cell (DC) (PG545 alone, naïve mice and mice bearing A20 lymphoma tumours), the “Activation of T cells” value is given as “does not activate T cells”. The “Activation of NK cells” value with dendritic cell (DC) (via effect on DCs) is on record as “potent activation”. Also, the “TAMs and MDSCs within the tumour microenvironment” value in data set [1] is on record as “depletion”. Also, the “Tumour growth inhibition (% TGI)” value with 4T1.2 tumours is given as 68%. Also, in the data set with advanced solid tumours (PG545 monotherapy), the “Reductions in tumour size” value is “did not lead to reductions in tumour size”. In the data set on advanced solid tumours (once weekly IV infusion, patients with advanced solid tumours), the Maximum tolerated dose is given as 100 mg. In addition, in data set [2], the “Tolerability (maximum tolerated dose issues)” value is on record as “body weight issues”.
